Experimental data taken from article PMC11190158, “Study on the design, synthesis, and activity of anti-tumor staple peptides targeting MDM2/MDMX” (Frontiers in Chemistry, 2024).
Positions of bridges follow the written chain, without caps; N, C: chain ends. Non-standard residues stand in square brackets, D forms with d. Residues, ends and D or L forms follow the SMILES beside them. R8 = C=CCCCCCC[C@@](C)(N)C(=O)O; S5 = C=CCCC[C@](C)(N)C(=O)O

Tests used:
circular dichroism = conditions: phosphate buffer (PB); pH 7.2; ns °C; 10-50 (printed mmol/L, probably uM)
[1] = Circular dichroism, degree of helicity; assay type: physicochemical; conditions: CD, PB pH 7.2, 10–50 mmol/L peptide, ambient temperature, 1-mm path length, 185–255 nm
Method: The staple peptides were soluble in PB with a pH of 7.2 at a concentration of 10–50 mmol/L. CD experiments were performed using a Jasco J-715 Spectropolarimeter at ambient temperature. A quartz cuvette with a 1-mm path length was used for the spectrum collection (wavelength, 185–255 nm; step resolution, 0.0001 mm; speed, 1.2 μm/h; accumulations, 6; and bandwidth, 0.0001 mm). We calculated the helicity of each peptide using Eq.

tumor cells = assay: Cytotoxicity / cell viability assay (CCK-8), cell line not given; assay type: cell-based, human; conditions: for concentration at which in vitro anti-tumor activity was exhibited: compared to linear peptide M3-1, cell line not named
Method: Human colon cancer cell lines HCT116 p53^+/+, HCT116 p53^−/−, U87 MG, and U251 were maintained in McCoy’s 5A Medium supplemented with 10% heat-inactivated FCS and 1% penicillin–streptomycin at 37°C, 5% CO2, and under complete humidification conditions. The cells (3×10^3 cells/well) were inoculated in 96-well plates and treated with different concentrations of polypeptides for 72 h. The absorbance at 450 nm was then measured using the CCK-8 Kit, and the percentage of cell survival was calculated based on the ratio of the sample well to the reference well A450.

HCT116 p53^+/+ = conditions: 72 h
HCT116 p53^−/− = conditions: 72 h
U87 MG = conditions: for IC50: 72 h; for concentration at which in vitro anti-tumor activity was exhibited: U87 MG tumor cells, CCK-8
U251 = conditions: for IC50: 72 h; for concentration at which in vitro anti-tumor activity was exhibited: U251 tumor cells, CCK-8

Compound	helicity (circular dichroism) [%]	helicity [1] [%]	concentration at which in vitro anti-tumor activity was exhibited (tumor cells) [µM]	IC50 (HCT116 p53^+/+) [µM]	IC50 (HCT116 p53^−/−) [µM]	IC50 (U87 MG) [µM]	concentration at which in vitro anti-tumor activity was exhibited (U87 MG) [µM]	IC50 (U251) [µM]	concentration at which in vitro anti-tumor activity was exhibited (U251) [µM]	anti-proliferative / tumor suppressive activity (in words) (tumor cells; HCT116 p53^+/+, HCT116 p53−/−, U87 and U251 cell viability experiments, versus template straight-chain peptide)
CSCC[C@H](NC(=O)[C@H](CC(C)C)NC(=O)[C@H](CCC(N)=O)NC(=O)[C@H](C)NC(=O)[C@H](Cc1c[nH]c2ccccc12)NC(=O)[C@H](Cc1ccc(O)cc1)NC(=O)[C@]1(C)CCCC=CCCC[C@](C)(NC(=O)[C@H](CCCCN)NC(C)=O)C(=O)N[C@@H]([C@@H](C)O)C(=O)N[C@@H](Cc2ccccc2)C(=O)N[C@@H](CC(C)C)C(=O)N1)C(=O)N[C@@H](CCC(N)=O)C(=O)N[C@@H](CCCCN)C(N)=O [SM3-1] (Ac-K[S5]TFL[S5]YWAQLMQK-NH2; staple 2-6)	42.4	42.36	25	118	54.8	19	25	22.6	50	–
CSCC[C@H](NC(=O)[C@H](CC(C)C)NC(=O)[C@H](CCC(N)=O)NC(=O)[C@H](C)NC(=O)[C@H](Cc1c[nH]c2ccccc12)NC(=O)[C@]1(C)CCCC=CCCC[C@](C)(NC(=O)[C@H](CC(C)C)NC(=O)[C@H](CCCCN)NC(C)=O)C(=O)N[C@@H](Cc2ccccc2)C(=O)N[C@@H](CC(C)C)C(=O)N[C@@H](CCC(=O)O)C(=O)N1)C(=O)N[C@@H](CCC(N)=O)C(=O)N[C@@H](CCCCN)C(N)=O [SM3-2] (Ac-KL[S5]FLE[S5]WAQLMQK-NH2; staple 3-7)	5.85	5.85	25	34.4	24	30.7	25	48.7	50	significantly improved
CSCC[C@H](NC(=O)[C@H](CC(C)C)NC(=O)[C@H](CCC(N)=O)NC(=O)[C@]1(C)CCCC=CCCC[C@](C)(NC(=O)[C@H](Cc2ccccc2)NC(=O)[C@@H](NC(=O)[C@H](CC(C)C)NC(=O)[C@H](CCCCN)NC(C)=O)[C@@H](C)O)C(=O)N[C@@H](CCC(=O)O)C(=O)N[C@@H](Cc2ccc(O)cc2)C(=O)N[C@@H](Cc2c[nH]c3ccccc23)C(=O)N1)C(=O)N[C@@H](CCC(N)=O)C(=O)N[C@@H](CCCCN)C(N)=O [SM3-3] (Ac-KLTF[S5]EYW[S5]QLMQK-NH2; staple 5-9)	38.1	38.10	25	15.6	25.8	47.5	50	93	100	–
CC(=O)N[C@@H](CCCCN)C(=O)N[C@@H](CC(C)C)C(=O)N[C@H](C(=O)N[C@@H](Cc1ccccc1)C(=O)N[C@]1(C)CCCCCCC=CCCC[C@@](C)(C(=O)N[C@@H](CCC(N)=O)C(=O)N[C@@H](CCCCN)C(N)=O)NC(=O)[C@H](CC(C)C)NC(=O)[C@H](CCC(N)=O)NC(=O)[C@H](C)NC(=O)[C@H](Cc2c[nH]c3ccccc23)NC(=O)[C@H](Cc2ccc(O)cc2)NC(=O)[C@H](CCC(=O)O)NC1=O)[C@@H](C)O [SM3-8] (Ac-KLTF[R8]EYWAQL[S5]QK-NH2; staple 5-12)	–	52.02	25	17.6	17.9	45	50	94.2	100	–
Ac-KLTFLEYWAQLMQK-NH2	0.54	–	–	–	–	–	–	–	–	–
